Where a name gives a salt, the structure may show the parent alone. Read-outs that look alike come from different tables or passages of the source.

Holding throughout (type): cell-based, human
One test relates to MRC-5. In words: WST-1 viability assay, MRC-5 cells. Particulars: MRC-5, 72 h incubation, WST-1, four replicates. The protocol:
(§1) Based on the novelty of the IMBcat compound, we aimed to evaluate its in vitro cytotoxicity in selected model cell lines as well as to determine the toxicity of the IBMcat enantiomers, since both the chemical structure and chirality of compounds could play a role in their bioactivity (Table 2). The cytotoxic profile of the IBMcat was determined by a WST-1 viability assay after 72-h treatment. For this purpose, cell lines derived from distinct tissues, often affected by NPSs, were chosen, i.e., cells of kidney, hepatic, neural, urinary, and intestinal origin as well as keratinocytes and primary fibroblasts (HEK 293T, Hep G2, HMC-3, SH-SY5Y, 5637, CaCo-2, HaCaT, MRC-5, and BJ, respectively). The cytotoxicity of IBMcat and its enantiomers was concentration- and cell-line dependent, the IC50 values, which were in the micromolar range, are given in Table 2. […] This was followed by embryonic kidney cells HEK 293T (immortalized), in which the toxicity ranged between a concentration of 123 and 192 µM.
(§2) In this study, the following cell lines were used: HEK 293T, Hep G2, HMC-3, SH-SY5Y, 5637, CaCo-2, HaCaT, MRC-5, BJ, and L929. […] The selected cell lines were chosen so that not only primary noncancerous cells are evaluated but also cells derived from tissues, which are the most often affected by novel synthetic drugs, i.e., kidney, liver, urinary bladder, and nervous tissue. […]
(§3) The cytotoxicity of IBMCat was evaluated in vitro by using a WST-1 viability assay (Sigma-Aldrich, Saint Louis, MO, USA) based on the transformation of a tetrazolium salt into colored formazan in metabolically active cells. […] After 72 h of additional incubation of the cells, their viability was determined by WST-1. […] The cells were incubated for 2 h, after which absorbance of the raised formazan was measured spectrophotometrically at 450 nm (reference wavelength of 630 nm) using a UV-Vis spectrometer (Bio-Rad Laboratories, Hercules, CA, USA). […] The half-maximal inhibitory concentrations (IC50) were calculated from the measured dose–response curves by AAT Bioquest.
On the technique in general: Tetrazolium dyes change colour on reduction, which living cells bring about.

The test system of a further test is BJ. Put plainly: WST-1 viability assay, BJ cells. Particulars: 72 h incubation, WST-1, four replicates. The protocol:
as §1, §2, §3

For a further test, the system named is HMC-3. In words: WST-1 viability assay, HMC-3 cells. Particulars: HMC-3, 72 h incubation, WST-1, four replicates. The protocol: as §1, §2, §3
The next test relates to HEK 293T. In words: WST-1 viability assay, HEK 293T cells. The protocol:
as §1
In this study, the following cell lines were used: HEK 293T, Hep G2, HMC-3, SH-SY5Y, 5637, CaCo-2, HaCaT, MRC-5, BJ, and L929. The cells lines were of the following origin: human embryonic immortalized kidney cells (HEK 293T), cells from hepatocellular carcinoma (Hep G2), microglial immortalized cells (HMC-3), cells from neuroblastoma (SH-SY5Y), the urinary bladder carcinoma (5637), colon carcinoma (CaCo-2), immortalized keratinocytes (HaCaT), noncancerous lung fibroblasts (MRC-5), fibroblasts from the foreskin (BJ) and mouse immortalized fibroblasts (L929; frequently used for cytotoxicity evaluation). The selected cell lines were chosen so that not only primary noncancerous cells are evaluated but also cells derived from tissues, which are the most often affected by novel synthetic drugs, i.e., kidney, liver, urinary bladder, and nervous tissue. Except for L929 and MRC-5 which were supplied by Sigma-Aldrich, the rest of the cell lines were purchased from the American Tissue Culture Collection (ATCC). […]
as §3

[1] abbreviates: Homo sapiens, 72 h incubation, WST-1, four replicates, read-out: IC50 ± SD.

Consider `CN[C@H](C)C(=O)c1ccc(CC(C)C)cc1` [R-IBMCat], for which the IC50 with MRC-5 was 515 ± 34 µM; in the test on BJ it was 698 ± 88 µM; in the test on HMC-3, 65 ± 2 µM; in the test on HEK 293T (72 h incubation, WST-1, four replicates, read-out: IC50 ± SD) it was 185 ± 5 µM.

Turning to `CNC(C)C(=O)c1ccc(CC(C)C)cc1.Cl` (stereo not shown) [IBMcat, 4-isobutylmethcathinone hydrochloride], the IC50 in the test with MRC-5 (Homo sapiens, MRC5) is 635 ± 17 µM; with BJ (Homo sapiens), 749 ± 102 µM; with HMC-3 (Homo sapiens, HMC3) it was 61 ± 2 µM; in the test with HEK 293T (Homo sapiens, 72 h, racemate and enantiomers, read-out: toxicity (IC50) range) it was 123 to 192 µM; with HEK 293T (setting [1]), 123 ± 6 µM.

On to `CN[C@@H](C)C(=O)c1ccc(CC(C)C)cc1` [S-IBMCat, (S)-4-isobutylmethcathinone hydrochloride], for which the IC50 stood at 530 ± 35 µM in the test with MRC-5 (Homo sapiens, MRC5); 685 ± 41 µM with BJ (Homo sapiens); 64 ± 1 µM in the test with HMC-3 (Homo sapiens, HMC3); 192 ± 2 µM in the test with HEK 293T (setting [1]).

The IC50 is the concentration that inhibits the measured activity by half.

Values taken from publication PMC9780888, “4-Isobutylmethcathinone—A Novel Synthetic Cathinone with High In Vitro Cytotoxicity and Strong Receptor Binding Preference of Enantiomers” (Pharmaceuticals, 2022).
